Assays:
[1] = system: participants with episodic migraine; assay: Study B: HIT-6 total score and responder rates; assay type: in vivo, human; set-up: key to Change from Baseline in HIT-6 Total Score, LS Mean Δ from baseline: points on HIT-6 total score (range 36–78); negative = improvement; settings: for HIT-6 total score, LS mean change (95% confidence interval) / proportion of HIT-6 responders (≥5 points from baseline): Study B, 60 mg QD; for Change from Baseline in HIT-6 Total Score, LS Mean Δ from baseline / HIT-6 Total Score Responder Rates, % Responder: atogepant 60 mg; for Change from Baseline in HIT-6 Total Score, LS Mean Δ from baseline: mITT Population; for HIT-6 Total Score Responder Rates, % Responder: responder = ≥5 point improvement from baseline
Method: In embodiments, the present disclosure provides a method for preventing migraine (such as a method for preventing migraine in patients having fewer than fifteen migraine days per month) wherein atogepant is administered in an amount of 10 mg QD, 30 mg QD, or 60 mg QD, wherein administration of atogepant results in a reduction in a 6-item Headache Impact Test (HIT-6) disability score relative to baseline. The Headache Impact Test (HIT-6) is a well-known tool for assessing migraine intensity, and uses six questions to measure the adverse impact of headache on, for example, social functioning, role functioning, vitality, cognitive functioning, and psychological distress. Responses are based on frequency using a 5-point verbal response scale ranging from “never” to “always”. The HIT-6 total score is the sum of the responses, and ranges from 36 to 78. See Yang et al., Validation of the Headache Impact Test (HIT-6™) Across Episodic and Chronic Migraine, Cephalalgia 2011 February; 31 (3): 357-367. In embodiments, treatment with atogepant results in a greater than five (≥5) point decrease in HIT-6 disability score.
The proportion of HIT-6 responders (≥5 points from baseline) were 59.92% and 80.77% of participants in the first (week 4) and last (week 52) timepoints assessed, respectively. A responder on the HIT-6 was defined as a participant with a ≥5 point improvement from baseline.

[2] = Atogepant oral pharmacokinetics; assay type: in vivo; settings: administered orally
[3] = system: participants with episodic migraine; assay: Study A: Migraine-Specific Quality of Life Questionnaire (MSQ v2.1) domain scores; assay type: in vivo, human; set-up: key to MSQ v2.1 Role Function Restrictive domain score, Week 12, mean (SD) / MSQ v2.1 Role Function Restrictive domain score, change from baseline, mean (SD) / MSQ v2.1 Role Function Restrictive domain score, MMRM LS mean change (SE): 0–100 scale, higher = better quality of life; settings: for MSQ v2.1 Role Function Restrictive domain score, Week 12, mean (SD): mITT; for MSQ v2.1 Role Function Restrictive domain score, MMRM LS mean change (SE) / MSQ v2.1 Role Function Restrictive domain score, change from baseline, mean (SD): week 12, mITT; for MSQ v2.1 EF domain, improvement vs placebo / MSQ v2.1 RFP domain, improvement vs placebo: week 12
Source text: The Migraine-Specific Quality of Life Questionnaire Version 2.1 is one of the most frequently utilized disease-specific tools assessing the impact of migraine on HRQL. The MSQ is a validated tool that assess the impact of migraine on function (i.e., daily social and work-related activities) over the past 4 weeks across three dimensions: Role Function-Restrictive (RR, or “RFR”, relating to how migraines limit the patient's daily social and work related activities), Role Function-Preventive (RP, e.g., how migraines prevent the patient's daily social and work related activities), and Emotional Function (EF, e.g., the emotions associated with a patient's migraines). Patients respond to items using a 6-point scale: “none of the time,” “a little bit of the time,” “some of the time”, “a good bit of the time,” “most of the time” and “all of the time,” which are assigned scores of 1 to 6, respectively. Raw dimension scores are computed as a sum of item responses and rescaled from a 0 to 100 scale such that higher scores indicate better quality of life. See Bagley et al., Validating Migraine-Specific Quality of Life Questionnaire v2.1 in Episodic and Chronic Migraine, Headache, 2012 March; 52 (3): 409-21.
The primary efficacy endpoint was change from baseline in mean monthly migraine days across the 12-week treatment period. Secondary efficacy endpoints, tested in hierarchical order, were change from baseline in mean monthly headache days across the 12-week treatment period, change from baseline in mean monthly acute medication use days across the 12 week treatment period, ≥50% reduction in 3-month average of monthly migraine days, change from baseline in MSQ v 2.1 Role Function-Restrictive domain score at week 12, change from baseline in mean monthly Performance of Daily Activities domain score of the AIM-D across the 12-week treatment period, and change from baseline in mean monthly Physical Impairment domain score of the AIM-D across the 12-week treatment period. An exploratory analysis of the time course of efficacy for atogepant by 4-week intervals, based on the least square mean change from baseline for the number of monthly migraine days over the 12-week treatment period was also conducted.
A secondary endpoint measured the change from baseline in MSQ v2.1 Role Function Restrictive Domain Score at Week 12. The Migraine-Specific Quality of Life Questionnaire Version 2.1 is one of the most frequently utilized disease-specific tools assessing the impact of migraine on HRQL. The MSQ measures the impact of migraine on the patient's HRQL over the past 4 weeks across three dimensions: Role Function-Restrictive (RR), Role Function-Preventive (RP), and Emotional Function (EF).

## C[C@@H]1[C@H](c2c(F)ccc(F)c2F)C[C@H](NC(=O)c2cnc3c(c2)C[C@@]2(C3)C(=O)Nc3ncccc32)C(=O)N1CC(F)(F)F [atogepant]
[1]; week 4
  HIT-6 total score, LS mean change (95% confidence interval): −7.63
  proportion of HIT-6 responders (≥5 points from baseline): 59.92%
[1]; week 52
  HIT-6 total score, LS mean change (95% confidence interval): −12.10
  proportion of HIT-6 responders (≥5 points from baseline): 80.77%
[1]; Week 4
  Change from Baseline in HIT-6 Total Score, LS Mean Δ from baseline: −7.63
  HIT-6 Total Score Responder Rates, % Responder: 59.92%
[1]; Week 8
  Change from Baseline in HIT-6 Total Score, LS Mean Δ from baseline: −9.14
  HIT-6 Total Score Responder Rates, % Responder: 66.60%
[1]; Week 12
  Change from Baseline in HIT-6 Total Score, LS Mean Δ from baseline: −6.60
  HIT-6 Total Score Responder Rates, % Responder: 69.21%
[1]; Week 16
  Change from Baseline in HIT-6 Total Score, LS Mean Δ from baseline: −10.15
  HIT-6 Total Score Responder Rates, % Responder: 71.65%
[1]; Week 20
  Change from Baseline in HIT-6 Total Score, LS Mean Δ from baseline: −10.56
  HIT-6 Total Score Responder Rates, % Responder: 73.98%
[1]; Week 24
  Change from Baseline in HIT-6 Total Score, LS Mean Δ from baseline: −10.55
  HIT-6 Total Score Responder Rates, % Responder: 74.00%
[1]; Week 28
  Change from Baseline in HIT-6 Total Score, LS Mean Δ from baseline: −10.99
  HIT-6 Total Score Responder Rates, % Responder: 76.56%
[1]; Week 32
  Change from Baseline in HIT-6 Total Score, LS Mean Δ from baseline: −11.15
  HIT-6 Total Score Responder Rates, % Responder: 77.89%
[1]; Week 36
  Change from Baseline in HIT-6 Total Score, LS Mean Δ from baseline: −11.29
  HIT-6 Total Score Responder Rates, % Responder: 75.62%
[1]; Week 40
  Change from Baseline in HIT-6 Total Score, LS Mean Δ from baseline: −11.76
  HIT-6 Total Score Responder Rates, % Responder: 80.71%
[1]; Week 44
  Change from Baseline in HIT-6 Total Score, LS Mean Δ from baseline: −11.46
  HIT-6 Total Score Responder Rates, % Responder: 78.39%
[1]; Week 48
  Change from Baseline in HIT-6 Total Score, LS Mean Δ from baseline: −11.86
  HIT-6 Total Score Responder Rates, % Responder: 80.11%
[1]; Week 52
  Change from Baseline in HIT-6 Total Score, LS Mean Δ from baseline: −12.10
  HIT-6 Total Score Responder Rates, % Responder: 80.77%
[2]
  time to maximum plasma concentrations: ≤ 2 h
[2]; plasma, po
  half-life: ~11 h
[3]; 10 mg QD (symbol *), week 4, FIG. 11
  MSQ v2.1 RFR domain score, LSMD vs. placebo (95% CI): 8.6
[3]; 10 mg QD (symbol *), week 8, FIG. 11
  MSQ v2.1 RFR domain score, LSMD vs. placebo (95% CI): 11.3
[3]; 10 mg QD, Week 12
  MSQ v2.1 RFR domain score, LSMD vs. placebo (95% CI): 9.9
[3]; 10 mg QD
  MSQ v2.1 Role Function Restrictive domain score, Week 12, mean (SD): 75.6
  MSQ v2.1 Role Function Restrictive domain score, MMRM LS mean change (SE): 30.35
  MSQ v2.1 Role Function Restrictive domain score, change from baseline, mean (SD): 30.8
[3]; 10 mg QD, week 12, listed as Atogepant
  MSQ v2.1 RFR domain score, LSMD vs. placebo (95% CI): 9.90
[3]; 10 mg
  MSQ v2.1 EF domain, improvement vs placebo: 8.3
  MSQ v2.1 RFP domain, improvement vs placebo: 5.8
[3]; 30 mg QD (symbol †), week 4, FIG. 11
  MSQ v2.1 RFR domain score, LSMD vs. placebo (95% CI): 11.2
[3]; 30 mg QD (symbol †), week 8, FIG. 11
  MSQ v2.1 RFR domain score, LSMD vs. placebo (95% CI): 9.9
[3]; 30 mg QD, Week 12
  MSQ v2.1 RFR domain score, LSMD vs. placebo (95% CI): 10.1
[3]; 30 mg QD
  MSQ v2.1 Role Function Restrictive domain score, Week 12, mean (SD): 75.4
  MSQ v2.1 Role Function Restrictive domain score, MMRM LS mean change (SE): 30.53
  MSQ v2.1 Role Function Restrictive domain score, change from baseline, mean (SD): 31.1
[3]; 30 mg QD, week 12, listed as Atogepant
  MSQ v2.1 RFR domain score, LSMD vs. placebo (95% CI): 10.08
[3]; 30 mg
  MSQ v2.1 EF domain, improvement vs placebo: 9.7
  MSQ v2.1 RFP domain, improvement vs placebo: 6.9
[3]; 60 mg QD (symbol ‡), week 4, FIG. 11
  MSQ v2.1 RFR domain score, LSMD vs. placebo (95% CI): 12.3
[3]; 60 mg QD (symbol ‡), week 8, FIG. 11
  MSQ v2.1 RFR domain score, LSMD vs. placebo (95% CI): 10.8
[3]; 60 mg QD, Week 12
  MSQ v2.1 RFR domain score, LSMD vs. placebo (95% CI): 10.8
[3]; 60 mg QD
  MSQ v2.1 Role Function Restrictive domain score, Week 12, mean (SD): 78.0
  MSQ v2.1 Role Function Restrictive domain score, MMRM LS mean change (SE): 31.25
  MSQ v2.1 Role Function Restrictive domain score, change from baseline, mean (SD): 30.5
[3]; 60 mg QD, week 12, listed as Atogepant
  MSQ v2.1 RFR domain score, LSMD vs. placebo (95% CI): 10.80
[3]; 60 mg
  MSQ v2.1 EF domain, improvement vs placebo: 10.5
  MSQ v2.1 RFP domain, improvement vs placebo: 7.1
